For this assay, the target named is CDK2 (human) (UniProt P24941). Description: Enzyme Assay.

From the Kinase Knowledgebase extract (Sharma et al. 2016) come the findings set out here.

As usually defined, the IC50 is the concentration at which inhibition is half-maximal. Low values mean greater potency, high ones weaker potency.

A value given as a limit tells only on which side of the number the result lay.

On to `CCC(CO)Nc1nc(NCc2cccc(O)c2)c2nnn(C(C)C)c2n1` (stereo not given), for which the IC50 turned out to be 10 µM.

The compound `CC(C)n1nnc2c(NCc3ccc(O)cc3)nc(N[C@H]3CC[C@H](N)CC3)nc21` registered an IC50 of 2.8 µM. With `O[C@H]1CC[C@H](Nc2nc(Nc3cccc(Cl)c3)c3nnn(Cc4ccccc4)c3n2)CC1`, the IC50 was over 100 µM. The value for `CC(C)C(CO)Nc1nc(NCc2cccc(O)c2)c2nnn(C(C)C)c2n1` (stereo not given) was 8 µM; that for `COc1ccc(CNc2nc(N[C@@H]3CCCC[C@@H]3N)nc3c2nnn3C(C)C)cc1O` was 13.7 µM. `CCC(CO)Nc1nc(NCc2ccccc2)c2nnn(C(C)C)c2n1` (stereo not given) showed an IC50 of 4.1 µM. Then `CC(C)C(CO)Nc1nc(NCc2ccccc2)c2nnn(C(C)C)c2n1` (stereo not given), with 7.3 µM; and `CC(C)n1nnc2c(Nc3cccc(Cl)c3)nc(N[C@H]3CC[C@H](N)CC3)nc21`, with 1.1 µM; and `CC(C)n1nnc2c(NCc3ccccc3O)nc(N[C@H]3CC[C@H](N)CC3)nc21`, with 16.4 µM. Then `CC(C)C(CO)Nc1nc(Nc2cccc(Cl)c2)c2nnn(C(C)C)c2n1` (stereo not given), with 20 µM; and `CC(C)n1nnc2c(NCc3ccccc3O)nc(N[C@@H]3CCCC[C@@H]3N)nc21`, with 4.1 µM. Compound `CCC(CO)Nc1nc(NCc2ccc(OC)c(O)c2)c2nnn(C(C)C)c2n1` (stereo not given) came in with an IC50 of 2.3 µM.

In the case of `CCC(CO)Nc1nc(NCc2ccccc2O)c2nnn(C(C)C)c2n1` (stereo not given), the IC50 turned out to be 1.2 µM.

As for `CC(C)C(CO)Nc1nc(NCc2ccccc2O)c2nnn(C(C)C)c2n1` (stereo not given), the IC50 was found to be 0.84 µM.

Compound `CCCCCCNc1nc(NC(CO)c2ccccc2)c2nnn(C(C)C)c2n1` (stereo not given) returned an IC50 of over 100 µM. In turn, `CC(C)n1nnc2c(NCc3ccccc3O)nc(NCc3ccccc3O)nc21` returned an IC50 of over 100 µM.

Take `CC(C)n1nnc2c(NCc3cccc(O)c3)nc(N[C@H]3CC[C@H](N)CC3)nc21`: the IC50 was determined as 4.9 µM. On to `CC(C)n1nnc2c(NCc3ccccc3)nc(NCCCO)nc21`, for which the IC50 worked out at 100 µM. In turn, `O[C@H]1CC[C@H](Nc2nc(NCC3CCCCC3)c3nnn(Cc4ccccc4)c3n2)CC1` gave an IC50 of over 100 µM. Then `CC(C)n1nnc2c(NCc3ccccc3)nc(N[C@H]3CC[C@H](N)CC3)nc21`, with 11.3 µM.
